The source of these data is patent publication US11318137B2, “Quinazoline compounds as modulators of Ras signaling” (VANDERBILT UNIVERSITY, priority 2017, dated 2022).

Structures are written as SMILES. Bounds are passed on as bounds.

Experiment [1] deals with T1, SOS-mediated nucleotide exchange on Ras (Homo sapiens, UniProt Q07889).
T1 sequence (Q07889 1-1333): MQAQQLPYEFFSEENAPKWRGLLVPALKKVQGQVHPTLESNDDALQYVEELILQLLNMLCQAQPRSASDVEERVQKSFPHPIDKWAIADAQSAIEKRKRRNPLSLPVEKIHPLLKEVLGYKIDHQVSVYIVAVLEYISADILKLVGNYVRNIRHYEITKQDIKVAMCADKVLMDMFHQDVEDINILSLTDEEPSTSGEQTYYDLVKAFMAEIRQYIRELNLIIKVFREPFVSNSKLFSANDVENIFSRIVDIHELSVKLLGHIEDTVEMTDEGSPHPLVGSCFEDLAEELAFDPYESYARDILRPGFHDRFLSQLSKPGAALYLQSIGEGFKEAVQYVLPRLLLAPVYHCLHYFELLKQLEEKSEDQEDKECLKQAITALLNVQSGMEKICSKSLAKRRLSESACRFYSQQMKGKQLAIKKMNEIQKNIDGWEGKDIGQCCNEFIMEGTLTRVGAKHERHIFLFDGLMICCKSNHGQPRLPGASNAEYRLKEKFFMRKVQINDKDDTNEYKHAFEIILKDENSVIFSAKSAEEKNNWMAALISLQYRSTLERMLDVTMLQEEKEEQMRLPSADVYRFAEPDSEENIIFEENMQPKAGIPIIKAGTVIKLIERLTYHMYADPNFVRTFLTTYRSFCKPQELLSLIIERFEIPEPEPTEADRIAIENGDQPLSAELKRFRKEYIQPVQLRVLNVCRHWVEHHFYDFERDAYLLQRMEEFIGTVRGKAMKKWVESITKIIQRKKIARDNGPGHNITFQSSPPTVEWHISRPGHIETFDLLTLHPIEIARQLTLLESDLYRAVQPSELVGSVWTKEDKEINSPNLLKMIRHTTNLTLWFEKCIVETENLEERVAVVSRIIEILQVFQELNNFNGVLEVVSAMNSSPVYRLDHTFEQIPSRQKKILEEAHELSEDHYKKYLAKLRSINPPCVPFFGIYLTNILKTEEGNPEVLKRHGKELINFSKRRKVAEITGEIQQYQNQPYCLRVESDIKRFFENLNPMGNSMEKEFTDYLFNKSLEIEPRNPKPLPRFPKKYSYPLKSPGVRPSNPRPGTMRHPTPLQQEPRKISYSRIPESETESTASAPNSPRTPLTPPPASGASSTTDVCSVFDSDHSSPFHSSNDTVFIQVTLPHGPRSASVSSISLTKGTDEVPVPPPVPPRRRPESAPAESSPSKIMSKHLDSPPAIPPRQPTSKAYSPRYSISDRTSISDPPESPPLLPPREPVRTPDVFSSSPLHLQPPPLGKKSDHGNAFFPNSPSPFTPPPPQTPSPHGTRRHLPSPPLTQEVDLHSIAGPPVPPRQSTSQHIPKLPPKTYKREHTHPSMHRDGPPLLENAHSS
Put plainly: SOS-mediated nucleotide exchange on Ras (BODIPY-GDP fluorescence). The following applies: Ras loaded with BODIPY-GDP, GTP and SOS added; EC50 from derived exchange rates. Format: biochemical. The procedure, abridged:
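Compound, then GTP and SOS, were added to buffered Ras preloaded with BODIPY-GDP, and the fluorescence change from labeled GDP being exchanged for GTP was followed over time. Rates came from single-exponential fits, and EC50 from a four-parameter fit of mean rate against compound concentration.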

The test system of experiment [2] is H727 lung cancer cell lines, which contain a G12V K-Ras mutation. Kind of experiment: Inhibition of cancer cell proliferation (CellTiter-Glo, 3 days). The class given is cell-based. The following applies: Homo sapiens, NCI-H727, 72 h, H727 cells, 3 days at 37° C., normalized to DMSO control, read-out: Cell proliferation activity (H727 cancer cell line proliferation IC50). How it is done: C. Inhibition of Cancer Cell Proliferation
Compounds of the present invention were measured for their ability to kill H727 lung cancer cell lines, which contain a G12V K-Ras mutation. Cell proliferation experiments were conducted in 96-well plates. Cells were plated at 1000 cells/well, incubated overnight, followed by treatment with a dose range of compound for 3 days at 37° C. Cell proliferation was assessed using a CellTiter-Glo assay (Promega) according to the manufacturer's protocol. Data were normalized to DMSO control. IC50 values were determined using a four-parameter dose-response (variable slope) equation. These assays are performed in a manner analogous to the assay disclosed in: Burns, M. C.; Sun, Q.; Daniels, R. N.; Camper, D. V.; Kennedy, J. P.; Phan, J.; Olejniczak, E. O.; Lee, T.; Waterson, A. G.; Rossanese, O. W.; Fesik, S. W. “Approach for targeting Ras with small molecules that activate SOS-mediated nucleotide exchange” Proc. Natl. Acad. Sci. 2014; 11(9): 3401-3406. PMCID: PMC3948241.
Background: In ATP-based viability assays light output follows the ATP content of the culture.

For experiment [3], the target named is T2, Son of Sevenless (SOS) (Homo sapiens, UniProt Q07889).
T2 sequence (Q07889 564-1049 limits assumed): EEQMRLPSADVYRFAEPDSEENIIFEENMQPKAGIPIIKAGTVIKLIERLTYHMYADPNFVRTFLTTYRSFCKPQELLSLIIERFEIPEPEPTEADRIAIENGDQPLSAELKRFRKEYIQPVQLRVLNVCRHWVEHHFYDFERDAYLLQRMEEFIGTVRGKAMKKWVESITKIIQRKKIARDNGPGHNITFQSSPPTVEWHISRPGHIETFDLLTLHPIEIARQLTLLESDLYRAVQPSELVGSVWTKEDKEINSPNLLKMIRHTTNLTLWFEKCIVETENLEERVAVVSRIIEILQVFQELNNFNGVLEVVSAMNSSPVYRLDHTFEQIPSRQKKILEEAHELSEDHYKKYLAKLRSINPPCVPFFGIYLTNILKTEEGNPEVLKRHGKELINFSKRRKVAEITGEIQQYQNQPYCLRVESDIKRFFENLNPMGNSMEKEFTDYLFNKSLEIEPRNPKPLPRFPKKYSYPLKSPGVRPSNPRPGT
Put plainly: Binding to SOS, fluorescence polarization anisotropy (FPA) displacement of FITC-conjugated probe. The following applies: binding affinity calculated from IC50 of FITC-probe displacement, read-out: Binding affinities (binding affinity to SOS). The procedure, abridged: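 FITC-labelled probe incubated with SOS in buffer; displacement by test compound across a dose range read as fluorescence anisotropy change. IC50 from four-parameter variable-slope fit, binding affinity calculated from IC50.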

As usually defined, the EC50 is the concentration giving half of the maximal effect. Low readings indicate an effect from little substance, high ones a need for much substance. The compound `C[C@@H](Nc1nc(Nc2cc(F)cc(F)c2)nc2ccc(CCN)cc12)C1CC1` [Example 109, (R)-6-(2-aminoethyl)-N^4-(1-cyclopropylethyl)-N^2-(3,5-difluorophenyl)quinazoline-2,4-diamine] returned an EC50 in experiment [1] of 1 to 5 µM. Also, in experiment [2], the IC50 is < 1 µM.
Consider `C1=C(c2cccc3c(NC(C4CC4)C4CC4)nc(NCC4CCCCC4)nc23)CCNC1` [Example 73, N^2-(cyclohexylmethyl)-N^4-(dicyclopropylmethyl)-8-(1,2,3,6-tetrahydropyridin-4-yl)quinazoline-2,4-diamine], for which, in experiment [1], the EC50 lay within 1 to 5 µM. In addition, the Ki in experiment [3] was 1 to 5 µM. The IC50 in experiment [2] is < 1 µM.
Regarding `Fc1cc(F)cc(Nc2nc(NCc3ncc[nH]3)c3ccccc3n2)c1` [Example 22, N^4-((1H-imidazol-2-yl)methyl)-N^2-(3,5-difluorophenyl)quinazoline-2,4-diamine], the EC50 in experiment [1] is > 30 µM. In addition, the Ki in experiment [3] is > 5 µM. In addition, the IC50 in experiment [2] was > 20 µM.
For `CC[C@@H](Nc1nc(Nc2ccc(F)c(Cl)c2)nc2c(C3=CCNCC3)cccc12)C1CC1` [Example 51, (R)—N^2-(3-chloro-4-fluorophenyl)-N^4-(1-cyclopropylpropyl)-8-(1,2,3,6-tetrahydropyridin-4-yl)quinazoline-2,4-diamine] the same measures were 1 to 5 µM, < 1 µM and < 1 µM.
As to `CC[C@@H](Nc1nc(Nc2ccc(F)c(Cl)c2)nc2ccccc12)c1cccs1` [Example 39, (R)—N^2-(3-chloro-4-fluorophenyl)-N^4-(1-(thiophen-2-yl)propyl)quinazoline-2,4-diamine], the EC50 in experiment [1] lay within 1 to 5 µM. For the same compound, the Ki in experiment [3] was > 5 µM. Besides, the IC50 in experiment [2] lay in the range of 5 to 20 µM.
Compound `CCC(CC)CNc1nc(Nc2ccc(F)c(Cl)c2)nc2c(N3CCNCC3)cccc12` [Example 102, N^2-(3-chloro-4-fluorophenyl)-N^4-(2-ethylbutyl)-8-(piperazin-1-yl)quinazoline-2,4-diamine] yielded a 50% effective concentration (EC50) in experiment [1] of 5 to 30 µM. Moreover, in experiment [3], the Ki is > 5 µM. The IC50 in experiment [2] is 1 to 5 µM.
`CCC(CC)CNc1nc(Nc2ccc(F)c(Cl)c2)nc2c(C3=CCNCC3)cccc12` [Example 98, N^2-(3-chloro-4-fluorophenyl)-N^4-(2-ethylbutyl)-8-(1,2,3,6-tetrahydropyridin-4-yl)quinazoline-2,4-diamine] came in with an EC50 in experiment [1] of 5 to 30 µM. In addition, the Ki in experiment [3] is 1 to 5 µM. Also, the IC50 in experiment [2] lay in the range of 1 to 5 µM.
For `C[C@@H](Nc1nc(Nc2ccn(C)n2)nc2c(C3=CCNCC3)cccc12)C1CC1` [Example 71, (R)—N^4-(1-cyclopropylethyl)-N^2-(1-methyl-1H-pyrazol-3-yl)-8-(1,2,3,6-tetrahydropyridin-4-yl)quinazoline-2,4-diamine], the EC50 in experiment [1] was 5 to 30 µM. For the same compound, the Ki in experiment [3] is > 5 µM. In addition, the IC50 in experiment [2] fell in the range of 1 to 5 µM.
For `C[C@@H](Nc1nc(NCC2CCCCC2)nc2c(C3=CCNCC3)cccc12)C1CC1` [Example 76, (R)—N^2-(cyclohexylmethyl)-N^4-(1-cyclopropylethyl)-8-(1,2,3,6-tetrahydropyridin-4-yl)quinazoline-2,4-diamine] the same measures were 1 to 5 µM, 1 to 5 µM and < 1 µM.
In experiment [1], `CC[C@@H](Nc1nc(Nc2ccc(F)c(Cl)c2)nc2c(C3=CCNCC3)cccc12)c1cccs1` [Example 100, (R)—N^2-(3-chloro-4-fluorophenyl)-8-(1,2,3,6-tetrahydropyridin-4-yl)-N^4-(1-(thiophen-2-yl)propyl)quinazoline-2,4-diamine] had an EC50 of 5 to 30 µM. For the same compound, the IC50 in experiment [2] was < 1 µM.
Compound `CC1CCC(CNc2nc(N[C@H](C)C3CC3)c3cccc(C4=CCNCC4)c3n2)CC1` (stereo partly drawn) [Example 104, (R)—N^4-(1-cyclopropylethyl)-N^2-((4-methylcyclohexyl)methyl)-8-(1,2,3,6-tetrahydropyridin-4-yl)quinazoline-2,4-diamine] had an EC50 in experiment [1] of 1 to 5 µM. Moreover, in experiment [3], the Ki was 1 to 5 µM. The IC50 in experiment [2] was < 1 µM.
`CC[C@@H](Nc1nc(Nc2ccc(F)c(Cl)c2)nc2c(CN)cccc12)C1CC1` [Example 68, (R)-8-(aminomethyl)-N^2-(3-chloro-4-fluorophenyl)-N^4-(1-cyclopropylpropyl)quinazoline-2,4-diamine]: the EC50 in experiment [1] lay in the range of 1 to 5 µM. Besides, the Ki in experiment [3] is > 5 µM. Besides, the IC50 in experiment [2] lay in the range of 1 to 5 µM.
As to `C[C@@H](Nc1nc(NCc2ncco2)nc2c(C3=CCNCC3)cccc12)C1CC1` [Example 72, (R)—N^4-(1-cyclopropylethyl)-N^2-(oxazol-2-ylmethyl)-8-(1,2,3,6-tetrahydropyridin-4-yl)quinazoline-2,4-diamine], the EC50 in experiment [1] fell in the range of 5 to 30 µM. For the same compound, the Ki in experiment [3] was > 5 µM. For the same compound, the IC50 in experiment [2] fell in the range of 5 to 20 µM.
On to `CC[C@@H](Nc1nc(Nc2ccc(F)c(Cl)c2)nc2c(N3CCNCC3)cccc12)c1cccs1` [Example 101, (R)—N^2-(3-chloro-4-fluorophenyl)-8-(piperazin-1-yl)-N^4-(1-(thiophen-2-yl)propyl)quinazoline-2,4-diamine], for which, in experiment [1], the EC50 was 5 to 30 µM. Besides, the Ki in experiment [3] is > 5 µM. For the same compound, the IC50 in experiment [2] lay in the range of 1 to 5 µM.
As for `C[C@@H](Nc1nc(Cc2cc(F)cc(F)c2)nc2ccccc12)C1CC1` [Example 110, (R)—N-(1-cyclopropylethyl)-2-(3,5-difluorobenzyl)quinazolin-4-amine], in experiment [1], the EC50 is 5 to 30 µM. In addition, in experiment [2], the IC50 lay in the range of 5 to 20 µM.
Taken in the same sequence, the figures for `CC[C@@H](Nc1nc(Nc2ccc(F)c(Cl)c2)nc2c(CCN)cccc12)C1CC1` [Example 50, (R)-8-(2-aminoethyl)-N^2-(3-chloro-4-fluorophenyl)-N^4-(1-cyclopropylpropyl)quinazoline-2,4-diamine] were 1 to 5 µM and 1 to 5 µM.
In turn, `C[C@@H](Nc1nc(Nc2ccc(F)c(Cl)c2)nc2ccccc12)C1CC1` [Example 1, (R)—N^2-(3-chloro-4-fluorophenyl)-N^4-(1-cyclopropylethyl)quinazoline-2,4-diamine] gave an EC50 in experiment [1] of 5 to 30 µM. Further, in experiment [2], the IC50 was 1 to 5 µM.
